Experimental data from US20230113037A1 (Bayer Aktiengesellschaft, priority 2019, published 2023).
pIC50: −log10 of the molar value. “And” between values parts separate entries of the source, which are not always exact repeats. Identical values can stand only once. Like-named read-outs stand apart in the source and are kept apart here.

How the values were obtained:
AHR [1] = target: T1, AHR (Homo sapiens, UniProt P35869); test: In vitro assay 1: antagonism in human cell line (AHR transactivation, firefly luciferase reporter, kynurenic acid prestimulated); type: cell-based; details: AHR Antagonism Human IC50 [M]
T1 construct: U87 MG glioblastoma cells (ATCC #HTB-14) endogenously expressing AHR; endogenous in cells; host or cells: U87 MG glioblastoma cells (ATCC #HTB-14)
T1 sequence (P35869 11-848): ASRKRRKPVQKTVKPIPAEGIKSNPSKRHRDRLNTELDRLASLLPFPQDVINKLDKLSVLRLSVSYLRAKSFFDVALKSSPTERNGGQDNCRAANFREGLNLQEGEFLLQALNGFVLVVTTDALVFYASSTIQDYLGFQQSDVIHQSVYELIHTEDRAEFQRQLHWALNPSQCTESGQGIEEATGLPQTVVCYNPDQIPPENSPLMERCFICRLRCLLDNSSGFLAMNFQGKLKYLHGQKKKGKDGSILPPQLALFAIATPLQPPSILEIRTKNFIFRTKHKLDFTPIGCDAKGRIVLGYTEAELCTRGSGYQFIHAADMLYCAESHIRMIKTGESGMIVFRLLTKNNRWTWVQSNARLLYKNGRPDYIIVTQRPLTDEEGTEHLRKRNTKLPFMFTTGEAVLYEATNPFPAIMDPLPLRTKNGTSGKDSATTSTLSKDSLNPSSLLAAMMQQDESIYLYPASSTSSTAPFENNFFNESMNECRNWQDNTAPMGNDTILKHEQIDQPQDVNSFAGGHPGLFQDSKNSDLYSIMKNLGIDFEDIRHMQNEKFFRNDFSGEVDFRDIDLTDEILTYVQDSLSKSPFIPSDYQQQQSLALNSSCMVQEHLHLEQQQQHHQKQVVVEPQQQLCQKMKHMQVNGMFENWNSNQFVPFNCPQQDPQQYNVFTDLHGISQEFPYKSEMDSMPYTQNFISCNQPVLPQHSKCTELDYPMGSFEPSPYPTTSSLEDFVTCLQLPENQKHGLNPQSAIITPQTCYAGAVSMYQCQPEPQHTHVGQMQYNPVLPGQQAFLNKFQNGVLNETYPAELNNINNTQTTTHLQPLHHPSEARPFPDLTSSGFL
Outline: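 Antagonism is measured against kynurenic acid prestimulation in U87 MG glioblastoma cells carrying stable DRE-luciferase and Renilla reporters. Positive inhibition control: 150 μM kynurenic acid with 5 μM staurosporine. Values are normalized to controls; repeats are averaged or given as medians.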

AHR [2] = target: T2, AHR (Mus musculus, UniProt P30561); test: In vitro assay 3: antagonism in mouse cell line (AHR transactivation, firefly luciferase reporter, kynurenic acid prestimulated); type: cell-based
T2 sequence (P30561 1-848 P471L/N533S/M589L): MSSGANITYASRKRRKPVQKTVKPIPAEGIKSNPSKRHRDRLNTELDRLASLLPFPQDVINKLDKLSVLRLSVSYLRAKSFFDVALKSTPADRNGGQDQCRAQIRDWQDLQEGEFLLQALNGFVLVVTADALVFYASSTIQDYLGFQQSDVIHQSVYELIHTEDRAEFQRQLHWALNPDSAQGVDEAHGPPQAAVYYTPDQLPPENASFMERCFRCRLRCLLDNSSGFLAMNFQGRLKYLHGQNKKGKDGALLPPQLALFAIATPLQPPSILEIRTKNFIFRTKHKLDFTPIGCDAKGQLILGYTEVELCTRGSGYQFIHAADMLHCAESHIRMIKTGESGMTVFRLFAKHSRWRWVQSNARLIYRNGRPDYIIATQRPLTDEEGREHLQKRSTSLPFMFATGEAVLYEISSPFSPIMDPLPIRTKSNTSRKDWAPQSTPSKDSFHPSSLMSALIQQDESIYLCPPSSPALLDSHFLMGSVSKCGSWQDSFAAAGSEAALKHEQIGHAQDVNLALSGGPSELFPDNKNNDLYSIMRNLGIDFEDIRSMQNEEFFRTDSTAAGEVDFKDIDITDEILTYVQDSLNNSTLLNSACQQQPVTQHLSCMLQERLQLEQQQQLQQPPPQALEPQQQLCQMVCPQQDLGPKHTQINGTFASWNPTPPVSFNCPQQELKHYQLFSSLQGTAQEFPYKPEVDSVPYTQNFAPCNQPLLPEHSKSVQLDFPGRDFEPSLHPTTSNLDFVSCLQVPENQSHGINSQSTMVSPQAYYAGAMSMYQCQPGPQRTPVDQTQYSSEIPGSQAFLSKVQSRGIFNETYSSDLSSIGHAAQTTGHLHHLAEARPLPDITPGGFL
Outline: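 Antagonism read as reduced firefly luciferase signal (SteadyGlo) from a stably transfected AHR/DRE reporter in a mouse line prestimulated with kynurenic acid. Data normalized to controls, the full-inhibition control being cells without kynurenic acid; multiple determinations given as average or median values.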

[3] = mouse Hepa 1c1c7 cells, 200 μM kynurenic acid, 20 hours, read-out: AHR Antagonism Mouse IC50

Structure (SMILES)	IC50 (AHR [1])	pIC50 (AHR [2]; [3])	pIC50 (AHR [2]; read-out: AHR Antagonism Mouse IC50, mouse Hepa 1c1c7 cells, 200 μM kynurenic acid, 20 hours)
COc1cccc(-c2nc3c4ccccc4nc(N[C@H](C)C(=O)NC(C)C)n3n2)c1 [Example 105, N^2-[2-(3-methoxyphenyl)[1,2,4]triazolo[1,5-c]quinazolin-5-yl]-N-propan-2-yl-D-alaninamide]	8.86e-09 M	8.13	–
COc1cccc(-c2nc3c4ccccc4nc(N[C@H](C)C(=O)NC4CC4)n3n2)c1 [Example 106, N-cyclopropyl-N^2-[2-(3-methoxyphenyl)[1,2,4]triazolo[1,5-c]quinazolin-5-yl]-D-alaninamide]	7.97e-09 M	8.31	–
CCNC(=O)[C@@H](C)Nc1nc2ccccc2c2nc(-c3cccc(OC)c3)nn12 [Example 107, N-ethyl-N^2-[2-(3-methoxyphenyl)[1,2,4]triazolo[1,5-c]quinazolin-5-yl]-D-alaninamide]	1.06e-08 M	8.01	–
CNC(=O)[C@@H](C)Nc1nc2ccccc2c2nc(-c3cccc(OC)c3)nn12 [Example 108, N^2-[2-(3-methoxyphenyl)[1,2,4]triazolo[1,5-c]quinazolin-5-yl]-N-methyl-D-alaninamide]	5.75e-09 M	8.45	–
COc1cccc(-c2nc3c4ccccc4nc(N[C@H](C)C(=O)NC4CCC4)n3n2)c1 [Example 109, N-cyclobutyl-N^2-[2-(3-methoxyphenyl)[1,2,4]triazolo[1,5-c]quinazolin-5-yl]-D-alaninamide]	6.94e-09 M	8.38	–
COc1cccc(-c2nc3c4ccccc4nc(N[C@H](C)C(=O)N(C)C)n3n2)c1 [Example 110, N^2-[2-(3-methoxyphenyl)[1,2,4]triazolo[1,5-c]quinazolin-5-yl]-N,N-dimethyl-D-alaninamide]	1.01e-08 M	8.31	–
COc1cccc(-c2nc3c4ccccc4nc(N[C@H](C)C(=O)NCCO)n3n2)c1 [Example 111, N-(2-hydroxyethyl)-N^2-[2-(3-methoxyphenyl)[1,2,4]triazolo[1,5-c]quinazolin-5-yl]-D-alaninamide]	1.42e-08 M	7.80	–
COc1cccc(-c2nc3c4ccccc4nc(N[C@H](C)C(=O)NCCCO)n3n2)c1 [Example 112, N-(3-hydroxypropyl)-N^2-[2-(3-methoxyphenyl)[1,2,4]triazolo[1,5-c]quinazolin-5-yl]-D-alaninamide]	3.79e-08 M	8.22	–
COc1cccc(-c2nc3c4ccccc4nc(N[C@H](CCS(C)(=O)=O)C(N)=O)n3n2)c1 [Example 113, (2R)-2-{[2-(3-methoxyphenyl)[1,2,4]triazolo[1,5-c]quinazolin-5-yl]amino}-4-(methylsulfonyl)butanamide]	1.58e-05 M	6.14	–
COc1cccc(-c2nc3c4ccccc4nc(N[C@@H](CCCCN)C(N)=O)n3n2)c1 [Example 114, N^2-[2-(3-methoxyphenyl)[1,2,4]triazolo[1,5-c]quinazolin-5-yl]-L-lysinamide]	> 2e-05 M	5.26 and < 5.24	–
COc1cccc(-c2nc3c4ccccc4nc(NC4CNCCNC4=O)n3n2)c1 (stereo not drawn) [Example 115, 6-{[2-(3-methoxyphenyl)[1,2,4]triazolo[1,5-c]quinazolin-5-yl]amino}-1,4-diazepan-5-one]	1.11e-06 M	7.17	–
O=C1NCCCC[C@H]1Nc1nc2c(F)cccc2c2nc(-c3cccc(F)c3)nn12 [Example 137, (3R)-3-{[7-fluoro-2-(3-fluorophenyl)[1,2,4]triazolo[1,5-c]quinazolin-5-yl]amino}azepan-2-one]	2.16e-09 M	–	9.08

Continued, in another order:

IC50 (AHR [1])	pIC50 (AHR [2]; [3])	Structure (SMILES)	pIC50 (AHR [2]; read-out: AHR Antagonism Mouse IC50, mouse Hepa 1c1c7 cells, 200 μM kynurenic acid, 20 hours)
2.83e-08 M	7.27	O=C1NCCCC[C@H]1Nc1nc2ccccc2c2nc(-c3ccccn3)nn12 [Example 124, (3R)-3-{[2-(pyridin-2-yl)[1,2,4]triazolo[1,5-c]quinazolin-5-yl]amino}azepan-2-one]	–
5.68e-10 M	8.33	O=C1NCCCC[C@H]1Nc1nc2ccccc2c2nc(-c3cccnc3)nn12 [Example 125, (3R)-3-{[2-(pyridin-3-yl)[1,2,4]triazolo[1,5-c]quinazolin-5-yl]amino}azepan-2-one]	–
1.3e-08 M	7.83	O=C1NCCCC[C@H]1Nc1nc2ccccc2c2nc(-c3ccncc3)nn12 [Example 126, (3R)-3-{[2-(pyridin-4-yl)[1,2,4]triazolo[1,5-c]quinazolin-5-yl]amino}azepan-2-one]	–
1.5e-09 M	9.50	CN(C)c1ccc(-c2nc3c4ccccc4nc(N[C@@H]4CCCCNC4=O)n3n2)cc1 [Example 128, (3R)-3-({2-[4-(dimethylamino)phenyl][1,2,4]triazolo[1,5-c]quinazolin-5-yl}amino)azepan-2-one]	–
4.55e-09 M	8.24	O=C1NCCCC[C@H]1Nc1nc2ccccc2c2nc(-c3ccco3)nn12 [Example 130, (3R)-3-{[2-(furan-2-yl)[1,2,4]triazolo[1,5-c]quinazolin-5-yl]amino}azepan-2-one]	–
1.79e-07 M	7.03	Cc1noc(-c2nc3c4ccccc4nc(N[C@@H]4CCCCNC4=O)n3n2)n1 [Example 131, (3R)-3-{[2-(3-methyl-1,2,4-oxadiazol-5-yl)[1,2,4]triazolo[1,5-c]quinazolin-5-yl]amino}azepan-2-one]	–
2.15e-08 M	7.58	CCc1noc(-c2nc3c4ccccc4nc(N[C@@H]4CCCCNC4=O)n3n2)n1 [Example 132, (3R)-3-{[2-(3-ethyl-1,2,4-oxadiazol-5-yl)[1,2,4]triazolo[1,5-c]quinazolin-5-yl]amino}azepan-2-one]	–
1.92e-08 M	7.49	CC(C)c1noc(-c2nc3c4ccccc4nc(N[C@@H]4CCCCNC4=O)n3n2)n1 [Example 133, (3R)-3-({2-[3-(propan-2-yl)-1,2,4-oxadiazol-5-yl][1,2,4]triazolo[1,5-c]quinazolin-5-yl}amino)azepan-2-one]	–
8.35e-08 M	7.06	CC(C)(C)c1noc(-c2nc3c4ccccc4nc(N[C@@H]4CCCCNC4=O)n3n2)n1 [Example 134, (3R)-3-{[2-(3-tert-butyl-1,2,4-oxadiazol-5-yl)[1,2,4]triazolo[1,5-c]quinazolin-5-yl]amino}azepan-2-one]	–
2.77e-08 M	7.69	O=C1NCCCC[C@H]1Nc1nc2ccccc2c2nc(-c3nc(C4CC4)no3)nn12 [Example 135, (3R)-3-{[2-(3-cyclopropyl-1,2,4-oxadiazol-5-yl)[1,2,4]triazolo[1,5-c]quinazolin-5-yl]amino}azepan-2-one]	–
3.09e-08 M	8.02	O=C1NCCCC[C@H]1Nc1nc2ccccc2c2nc(-c3nc(C(F)(F)F)no3)nn12 [Example 136, (3R)-3-({2-[3-(trifluoromethyl)-1,2,4-oxadiazol-5-yl][1,2,4]triazolo[1,5-c]quinazolin-5-yl}amino)azepan-2-one]	–
7.41e-10 M	8.84	COc1ccc(-c2nc3c4cccc(F)c4nc(N[C@@H]4CCCCNC4=O)n3n2)cc1 [Example 138, (3R)-3-{[7-fluoro-2-(4-methoxyphenyl)[1,2,4]triazolo[1,5-c]quinazolin-5-yl]amino}azepan-2-one]	–
